Experimental data: paper PMC11003488 (Journal of Enzyme Inhibition and Medicinal Chemistry, 2023)

Key:
[1] = system: NSCLC cell lines; experiment: NCI-60 SRB growth inhibition, subpanel; format: cell-based, human; conditions: Homo sapiens, read-out: GI50 MG-MID
[2] = system: SF-295; experiment: NCI-60 SRB growth inhibition, one-dose and five-dose; format: cell-based; conditions: Homo sapiens; for GI50: SF-295; for inhibition at 10 µM: SF-295, read-out: percent growth inhibition
[3] = system: HOP-62; experiment: as above; format: cell-based; conditions: Homo sapiens; for GI50: HOP-62; for inhibition at 10 µM: HOP-62, read-out: percent growth inhibition
[4] = system: NCI-H226; experiment: as above; format: cell-based; conditions: Homo sapiens; for GI50: NCI-H226; for inhibition at 10 µM: NCI-H226, read-out: percent growth inhibition
[5] = system: WI-38 normal human fibroblast cells; experiment: Cytotoxicity towards normal fibroblasts, safety index; format: cell-based; conditions: WI-38 versus cancer cell lines
[6] = as above; format: cell-based, human; conditions: human, WI-38 normal fibroblast cells
[7] = system: UACC-257; experiment: NCI-60 SRB growth inhibition, one-dose and five-dose; format: cell-based; conditions: Homo sapiens; for GI50: UACC-257; for inhibition at 10 µM: UACC-257, read-out: percent growth inhibition
[8] = system: HT29; experiment: as above; format: cell-based; conditions: Homo sapiens; for GI50: HT-29; for inhibition at 10 µM: HT-29, read-out: percent growth inhibition
[9] = system: OVCAR-4; experiment: as above; format: cell-based; conditions: Homo sapiens; for GI50: OVCAR-4; for inhibition at 10 µM: OVCAR-4, read-out: percent growth inhibition
[10] = system: Colon cancer cell lines; experiment: NCI-60 SRB growth inhibition, subpanel; format: cell-based, human; conditions: Homo sapiens, read-out: GI50 MG-MID
[11] = system: Melanoma cell lines; experiment: NCI-60 SRB growth inhibition, subpanel; format: cell-based, human; conditions: Homo sapiens, read-out: GI50 MG-MID
[12] = system: Breast cancer cell lines; experiment: NCI-60 SRB growth inhibition, subpanel; format: cell-based, human; conditions: Homo sapiens, read-out: GI50 MG-MID
[13] = system: MDA-MB-468; experiment: NCI-60 SRB growth inhibition, one-dose and five-dose; format: cell-based; conditions: Homo sapiens; for GI50: MDA-MB-468; for inhibition at 10 µM: MDA-MB-468, read-out: percent growth inhibition
[14] = system: LOX IMVI; experiment: as above; format: cell-based; conditions: Homo sapiens; for inhibition at 10 µM: read-out: percent growth inhibition
[15] = target: Human VEGFR-2 (Homo sapiens, UniProt P35968); experiment: VEGFR-2 inhibition assay; format: biochemical
Chain of Human VEGFR-2 (P35968 20-1356): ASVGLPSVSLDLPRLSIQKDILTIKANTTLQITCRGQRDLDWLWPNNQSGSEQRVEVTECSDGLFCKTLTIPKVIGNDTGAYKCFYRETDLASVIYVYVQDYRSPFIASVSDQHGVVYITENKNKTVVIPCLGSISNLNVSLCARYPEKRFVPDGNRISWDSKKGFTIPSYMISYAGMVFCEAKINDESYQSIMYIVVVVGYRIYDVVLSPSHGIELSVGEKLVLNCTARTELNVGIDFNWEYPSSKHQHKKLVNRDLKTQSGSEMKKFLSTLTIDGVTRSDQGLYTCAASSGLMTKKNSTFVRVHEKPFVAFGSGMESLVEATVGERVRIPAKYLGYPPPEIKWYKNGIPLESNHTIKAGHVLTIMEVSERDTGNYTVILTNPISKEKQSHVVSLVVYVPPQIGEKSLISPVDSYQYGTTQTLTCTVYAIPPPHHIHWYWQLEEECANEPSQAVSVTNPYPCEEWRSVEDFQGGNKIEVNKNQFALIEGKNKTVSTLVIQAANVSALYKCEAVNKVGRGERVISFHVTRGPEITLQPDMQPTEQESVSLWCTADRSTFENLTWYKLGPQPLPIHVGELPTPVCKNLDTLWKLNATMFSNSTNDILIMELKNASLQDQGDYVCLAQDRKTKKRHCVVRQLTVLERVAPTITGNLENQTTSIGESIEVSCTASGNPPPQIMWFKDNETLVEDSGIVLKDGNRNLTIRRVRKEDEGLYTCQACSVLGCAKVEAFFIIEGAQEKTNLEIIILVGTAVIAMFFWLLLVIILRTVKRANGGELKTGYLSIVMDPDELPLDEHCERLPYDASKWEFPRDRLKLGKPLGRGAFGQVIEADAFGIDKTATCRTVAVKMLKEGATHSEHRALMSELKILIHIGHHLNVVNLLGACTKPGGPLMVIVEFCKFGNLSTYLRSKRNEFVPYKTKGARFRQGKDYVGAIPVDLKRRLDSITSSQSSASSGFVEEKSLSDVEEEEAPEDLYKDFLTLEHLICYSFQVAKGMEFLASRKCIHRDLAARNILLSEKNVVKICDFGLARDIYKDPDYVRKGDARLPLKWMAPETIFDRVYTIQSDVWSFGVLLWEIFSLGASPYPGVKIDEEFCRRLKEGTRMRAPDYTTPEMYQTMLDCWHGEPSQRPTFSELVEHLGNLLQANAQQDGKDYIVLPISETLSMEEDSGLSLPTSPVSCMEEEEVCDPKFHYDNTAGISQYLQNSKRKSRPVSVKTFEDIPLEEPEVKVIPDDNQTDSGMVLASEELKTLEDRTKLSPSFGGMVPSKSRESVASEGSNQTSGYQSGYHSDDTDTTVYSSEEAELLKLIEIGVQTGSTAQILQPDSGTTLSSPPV

[16] = system: DU-145; experiment: NCI-60 SRB growth inhibition, one-dose and five-dose; format: cell-based; conditions: Homo sapiens; for GI50: DU-145; for inhibition at 10 µM: DU-145, read-out: percent growth inhibition
[17] = system: KM12; experiment: as above; format: cell-based; conditions: Homo sapiens; for GI50: KM12; for inhibition at 10 µM: KM12, read-out: percent growth inhibition
[18] = system: MALME-3M; experiment: as above; format: cell-based; conditions: Homo sapiens; for inhibition at 10 µM: read-out: percent growth inhibition
[19] = system: MDA-MB-435; experiment: as above; format: cell-based; conditions: Homo sapiens; for GI50: MDA-MB-435; for inhibition at 10 µM: MDA-MB-435, read-out: percent growth inhibition
[20] = system: SK-MEL-5; experiment: as above; format: cell-based; conditions: Homo sapiens; for GI50: SK-MEL-5; for inhibition at 10 µM: SK-MEL-5, read-out: percent growth inhibition
[21] = system: Leukaemia cell lines; experiment: NCI-60 SRB growth inhibition, subpanel; format: cell-based, human; conditions: Homo sapiens, read-out: GI50 MG-MID
[22] = system: Ovarian cancer cell lines; experiment: NCI-60 SRB growth inhibition, subpanel; format: cell-based, human; conditions: Homo sapiens, read-out: GI50 MG-MID
[23] = system: UO-31; experiment: NCI-60 SRB growth inhibition, one-dose and five-dose; format: cell-based; conditions: Homo sapiens, UO-31
[24] = system: COLO 205; experiment: as above; format: cell-based; conditions: Homo sapiens; for GI50: COLO 205; for inhibition at 10 µM: COLO 205, read-out: percent growth inhibition
[25] = system: CNS cancer cell lines; experiment: NCI-60 SRB growth inhibition, subpanel; format: cell-based, human; conditions: Homo sapiens, read-out: GI50 MG-MID
[26] = system: MDA-MB-231/ATCC; experiment: NCI-60 SRB growth inhibition, one-dose and five-dose; format: cell-based; conditions: Homo sapiens, MDA-MB-231
[27] = system: CCRF-CEM; experiment: as above; format: cell-based; conditions: Homo sapiens; for inhibition at 10 µM: read-out: percent growth inhibition
[28] = system: Prostate cancer cell lines; experiment: NCI-60 SRB growth inhibition, subpanel; format: cell-based, human; conditions: Homo sapiens, read-out: GI50 MG-MID
[29] = system: ACHN; experiment: NCI-60 SRB growth inhibition, one-dose and five-dose; format: cell-based; conditions: Homo sapiens; for inhibition at 10 µM: read-out: percent growth inhibition
[30] = system: SK-OV-3; experiment: as above; format: cell-based; conditions: Homo sapiens; for GI50: SK-OV-3; for inhibition at 10 µM: SK-OV-3, read-out: percent growth inhibition
[31] = system: Renal cancer cell lines; experiment: NCI-60 SRB growth inhibition, subpanel; format: cell-based, human; conditions: Homo sapiens, read-out: GI50 MG-MID

`CC(=O)Nc1ccc(/C=C/C(=O)c2cccc(NCc3csc4ccccc34)c2)cc1` [Compound 5i, (E)-N-(4–(3-(3-((benzo[b]thiophen-3-ylmethyl)amino)phenyl)-3-oxoprop-1-en-1-yl)phenyl) acetamide] showed a GI50 [1] of 11.2 µM, a GI50 [2] of 11.9 µM and an inhibition at 10 µM [2] of 73.1%. The GI50 [3] was 11.2 µM, the inhibition at 10 µM [3] was 73.8% and the GI50 [4] was 7.73 µM. For the same compound, the inhibition at 10 µM [4] was 91.9%, the Safety index [5] was >1 and the GI50 at 48 h [6] was > 100 µM. It also gave a GI50 [7] of 14.2 µM, an inhibition at 10 µM [7] of 50.6% and a GI50 [8] of 5.38 µM. It also gave an inhibition at 10 µM [8] of 92.8%, a GI50 [9] of 9.52 µM and an inhibition at 10 µM [9] of 64.8%. It also gave a GI50 [10] of 6.66 µM, a GI50 [11] of 8.14 µM and a GI50 [12] of 3.79 µM. For the same compound, the GI50 [13] was 4 µM, the inhibition at 10 µM [13] was 97.9% and the GI50 [14] was 2.05 µM. The inhibition at 10 µM [14] was 174%, the IC50 [15] was 0.66 ± 0.018 µM and the GI50 [16] was 5.45 µM. It also gave an inhibition at 10 µM [16] of 74.7%, a GI50 [17] of 5.12 µM and an inhibition at 10 µM [17] of 129%. It also gave a GI50 [18] of 9.28 µM, an inhibition at 10 µM [18] of 55.5% and a GI50 [19] of 4.37 µM. The inhibition at 10 µM [19] was 49.2%, the GI50 [20] was 5.97 µM and the inhibition at 10 µM [20] was 85.9%. The GI50 [21] was 2.93 µM, the GI50 [22] was 8.28 µM and the GI50 [23] was 5.16 µM. For the same compound, the GI50 [24] was 17 µM, the inhibition at 10 µM [24] was 19.8% and the GI50 [25] was 6.12 µM. It also gave a GI50 [26] of 3.42 µM, a GI50 [27] of 2.87 µM and an inhibition at 10 µM [27] of 125%. The GI50 [28] was 5.01 µM, the GI50 [29] was 7.35 µM and the inhibition at 10 µM [29] was 51.4%. For the same compound, the GI50 [30] was 16.7 µM, the inhibition at 10 µM [30] was 1.94% and the GI50 [31] was 11.3 µM.

Work on `CC(=O)Nc1ccc(/C=C/C(=O)c2cccc(NCc3ccc(CO)cc3)c2)cc1` [Compound 5j, (E)-N-(4–(3-(3-((4-(hydroxymethyl)benzyl)amino)phenyl)-3-oxoprop-1-en-1-yl)phenyl) acetamide] yielded a GI50 [1] of 13.9 µM, a GI50 [2] of 12.4 µM and an inhibition at 10 µM [2] of 79.5%. For the same compound, the GI50 [3] was 18.9 µM, the inhibition at 10 µM [3] was 93.7% and the GI50 [4] was 13.7 µM. For the same compound, the inhibition at 10 µM [4] was 138%, the Safety index [5] was >1 and the GI50 at 48 h [6] was > 100 µM. The GI50 [7] was 11.7 µM, the inhibition at 10 µM [7] was 135% and the GI50 [8] was 6.06 µM. For the same compound, the inhibition at 10 µM [8] was 180%, the GI50 [9] was 14.8 µM and the inhibition at 10 µM [9] was 75.5%. It also gave a GI50 [10] of 7.35 µM, a GI50 [11] of 11.5 µM and a GI50 [12] of 10.1 µM. For the same compound, the GI50 [13] was 6.27 µM, the inhibition at 10 µM [13] was 171% and the GI50 [14] was 2.96 µM. For the same compound, the inhibition at 10 µM [14] was 194%, the IC50 [15] was 0.82 ± 0.016 µM and the GI50 [16] was 5.03 µM. For the same compound, the inhibition at 10 µM [16] was 84.8%, the GI50 [17] was 3.93 µM and the inhibition at 10 µM [17] was 158%. The GI50 [18] was 11 µM, the inhibition at 10 µM [18] was 141% and the GI50 [19] was 13.8 µM. The inhibition at 10 µM [19] was 79.8%, the GI50 [20] was 10.2 µM and the inhibition at 10 µM [20] was 183%. For the same compound, the GI50 [21] was 5.36 µM, the GI50 [22] was 12.4 µM and the GI50 [23] was 10.7 µM. It also gave a GI50 [24] of 16 µM, an inhibition at 10 µM [24] of 150% and a GI50 [25] of 10.1 µM. For the same compound, the GI50 [26] was 6.79 µM, the GI50 [27] was 8.8 µM and the inhibition at 10 µM [27] was 121%. It also gave a GI50 [28] of 8.67 µM, a GI50 [29] of 10.3 µM and an inhibition at 10 µM [29] of 155%. For the same compound, the GI50 [30] was 16.3 µM, the inhibition at 10 µM [30] was 4.73% and the GI50 [31] was 13.3 µM.
